This is an account of results in patent US5681836A, “Methanesulfonate salts of antipsychotic benzofuran derivatives” (Merck, Sharp & Dohme, Ltd., priority 1995, dated 1997).

Counter-ions that a name gives are not always drawn.

This experiment has as its target T1, human dopamine D4 receptor subtype (Homo sapiens, UniProt P21917).
T1 sequence (P21917 1-419): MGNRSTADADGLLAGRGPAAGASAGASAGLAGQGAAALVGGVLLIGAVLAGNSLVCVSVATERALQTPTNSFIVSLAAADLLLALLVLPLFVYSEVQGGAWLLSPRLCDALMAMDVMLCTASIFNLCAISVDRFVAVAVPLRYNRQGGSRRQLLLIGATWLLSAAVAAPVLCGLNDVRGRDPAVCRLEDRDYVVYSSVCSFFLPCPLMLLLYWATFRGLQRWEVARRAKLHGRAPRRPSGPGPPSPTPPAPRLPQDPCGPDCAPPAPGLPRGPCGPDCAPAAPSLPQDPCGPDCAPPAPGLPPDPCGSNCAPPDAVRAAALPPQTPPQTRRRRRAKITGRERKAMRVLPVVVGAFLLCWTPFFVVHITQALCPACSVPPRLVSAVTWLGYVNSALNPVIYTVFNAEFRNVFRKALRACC
Description: [3H]-Spiperone binding (displacement) studies, human dopamine D4 receptor subtype expressed in clonal cell lines. The settings on record: 0.2 nM [3H]-spiperone for displacement; 60 min, room temperature (22° C.), pH 7.4; membranes of clonal cell lines; read-out: Ki value for displacement of [3H]-spiperone from the human dopamine D4 receptor subtype. On the procedure: Moreover, these salts display a selective affinity for the D4 subtype relative to the D2 subtype.
Clonal cell lines expressing the human dopamine D4 receptor subtype were harvested in PBS and then lysed in 10 mM Tris-HCl pH 7.4 buffer containing 5 mM MgSO4 for 20 min on ice. Membranes were centrifuged at 50,000 g for 15 min at 4° C. and the resulting pellets resuspended in assay buffer (50 mM Tris-HCl pH 7.4 containing 5 mM EDTA, 1.5 mM CaCl2, 5 mM MgCl2, 5 mM KCl, 120 mM NaCl, and 0.1% ascorbic acid) at 20 mg/ml wet weight. Incubations were carried out for 60 min at room temperature (22° C.) in the presence of 0.05-2 nM [^3 H]-spiperone or 0.2 nM for displacement studies and were initiated by addition of 20-100 μg protein in a final assay volume of 0.5 ml. The incubation was terminated by rapid filtration over GF/B filters presoaked in 0.3% PEI and washed with 10 ml ice-cold 50 mM Tris-HCl, pH 7.4. Specific binding was determined by 10 μM apomorphine and radioactivity determined by counting in a LKB beta counter. Binding parameters were determined by non-linear least squares regression analysis, from which the inhibition constant Ki could be calculated for each test compound.

What is called Ki is a measure of affinity in units of concentration, obtained from inhibition or displacement. As for `C1=C(/C=C/c2ccccc2)CCN(Cc2coc3ccccc23)C1` [Example 1, (E)-3-[4-(2-Phenylethenyl)-1,2,3,6-tetrahydropyridin-1-yl]methylbenzo[b]furan methanesulfonate salt], the Ki was below 1500 nM.
